According to paper PMC11470957, “Principles of paralog-specific targeted protein degradation engaging the C-degron E3 KLHDC2” (Nature Communications, 2024):
Several values for one entry are separate records, joined by “and”; a condition that tells them apart may be missing. Equal values may be shown once. Entries after “also recorded” stand apart in the source; their conditions may differ.

Assays:
[1] = system: SKBR3, AU565, RD, SKES1, A673 cells; test: Cell Titer-Glo Luminescent Cell Viability assay; details: 24 h, read-out: IC50, cell viability
[2] = Measurement of SJ46421 cellular concentration by LC-MS/MS; assay type: in vitro ADME; details: SKBR3, from LC-MS-MS of lysates
[3] = target: neddylated CRL2^KLHDC2 (Homo sapiens, UniProt Q9Y2U9, G405K/S406K); test: biochemical
[4] = target: BRD2^BD2 (Homo sapiens, UniProt P25440); test: ITC, binary binding to BRD2^BD2
[5] = target: BRD3^BD2 (Homo sapiens, UniProt Q15059); test: ITC, binary binding to BRD3^BD2
[6] = target: BRD4^BD2 (Homo sapiens, UniProt O60885); test: ITC, binary binding to BRD4^BD2
[7] = target: KLHDC2^SBD / BRD2^BD2 (Homo sapiens, UniProt P25440+Q9Y2U9); test: ITC, ternary complex KLHDC2^SBD with PROTAC-BRD2^BD2
[8] = target: KLHDC2^SBD / BRD3^BD2 (Homo sapiens, UniProt Q15059+Q9Y2U9); test: ITC, ternary complex KLHDC2^SBD with PROTAC-BRD3^BD2
[9] = target: KLHDC2^SBD / BRD4^BD2 (Homo sapiens, UniProt O60885+Q9Y2U9); test: ITC, ternary complex KLHDC2^SBD with PROTAC-BRD4^BD2
[10] = target: R56A KLHDC2^SBD / BRD3^BD2 (Homo sapiens, UniProt Q15059+Q9Y2U9, R56A); test: ITC, ternary complex R56A KLHDC2^SBD with PROTAC-BRD3^BD2
[11] = target: KLHDC2^SBD / G382E BRD2^BD2 (Homo sapiens, UniProt P25440+Q9Y2U9, G382E); test: ITC, ternary complex KLHDC2^SBD with PROTAC-G382E BRD2^BD2
[12] = target: R112A KLHDC2^SBD / BRD3^BD2 (Homo sapiens, UniProt Q15059+Q9Y2U9, R112A); test: ITC, ternary complex R112A KLHDC2^SBD with PROTAC-BRD3^BD2
[13] = target: R56A KLHDC2^SBD / G386E BRD4^BD2 (Homo sapiens, UniProt O60885+Q9Y2U9, G386E/R56A); test: ITC, ternary complex R56A KLHDC2^SBD with PROTAC-G386E BRD4^BD2
[14] = system: CUL2^KLHDC2, CUL2^KLHDC3, CUL2^KLHDC10, CUL5^KLHDC1; test: SJ46421-dependent BRD^BD2 ubiquitylation by KLHDC-family CRLs (E3 selectivity); details: Figs 5a, S5a
[15] = target: neddylated CRL2^KLHDC2 (tetrameric KLHDC2-EloB/C) (Homo sapiens, UniProt Q15059+Q9Y2U9); test: Ubiquitylation assay monitoring disruption of the KLHDC2-EloBC tetrameric assembly
[16] = cell: SJ46421, syringe: BRD2^BD2
[17] = cell: SJ46421, syringe: BRD3^BD2
[18] = ITC, syringe BRD4BD2, cell compound, Rep1, Rep2
[19] = cell: SJ46421, syringe: BRD4^BD2
[20] = ITC, syringe KLHDC2, cell BRD2BD2-compound, Rep1, Rep2
[21] = cell: PROTAC-BRD2^BD2, syringe: KLHDC2^SBD
[22] = cell: PROTAC-BRD3^BD2, syringe: KLHDC2^SBD
[23] = cell: PROTAC-BRD4^BD2, syringe: KLHDC2^SBD
[24] = cell: SJ46421-BRD3^BD2, syringe: R56A KLHDC2^SBD
[25] = cell: SJ46421-G382E BRD2^BD2, syringe: KLHDC2^SBD
[26] = ITC source data Fig4f, N=1, syringe R112A KLHDC2, cell SJ46421-BRD3BD2
[27] = ITC, syringe R112A KLHDC2, cell compound-BRD3BD2, N=1
[28] = cell: SJ46421-BRD3^BD2, syringe: R112A KLHDC2^SBD, n=1
[29] = cell: SJ46421-G386E BRD4^BD2, syringe: R56A KLHDC2^SBD

KLHDC2^SBD / BRD2^BD2, sequence (Q9Y2U9 15-361): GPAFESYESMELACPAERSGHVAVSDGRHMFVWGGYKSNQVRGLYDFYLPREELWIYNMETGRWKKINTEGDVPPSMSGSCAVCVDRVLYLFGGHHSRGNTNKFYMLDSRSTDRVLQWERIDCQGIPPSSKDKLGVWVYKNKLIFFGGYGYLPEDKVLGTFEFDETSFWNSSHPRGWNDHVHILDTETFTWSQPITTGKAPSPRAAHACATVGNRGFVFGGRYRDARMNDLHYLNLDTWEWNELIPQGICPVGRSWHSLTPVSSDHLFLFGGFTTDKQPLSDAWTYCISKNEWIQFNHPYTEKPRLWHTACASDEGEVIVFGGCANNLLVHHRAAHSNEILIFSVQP
KLHDC2^SBD / BRD2^BD2, sequence (P25440 344-455): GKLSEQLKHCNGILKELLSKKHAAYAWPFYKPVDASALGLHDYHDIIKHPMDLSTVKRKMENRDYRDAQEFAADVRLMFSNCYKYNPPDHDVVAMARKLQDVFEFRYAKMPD
KLHDC2^SBD / G382E BRD2^BD2, sequence (Q9Y2U9 15-361): as the sequence (Q9Y2U9 15-361) above
KLHDC2^SBD / G382E BRD2^BD2, sequence (P25440 344-455 G382E): as the sequence (P25440 344-455) above, with G39E counted along it
KLHDC2^SBD / BRD3^BD2, sequence (Q9Y2U9 15-361): as the sequence (Q9Y2U9 15-361) above
KLHDC2^SBD / BRD3^BD2, sequence (Q15059 306-416): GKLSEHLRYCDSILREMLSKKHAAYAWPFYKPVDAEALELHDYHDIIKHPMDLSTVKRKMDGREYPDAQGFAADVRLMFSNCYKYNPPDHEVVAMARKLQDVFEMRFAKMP
KLHDC2^SBD / BRD4^BD2, sequence (Q9Y2U9 15-361, other chains not shown): as the sequence (Q9Y2U9 15-361) above
BRD3^BD2, sequence (Q15059 306-416): as the sequence (Q15059 306-416) above
R112A KLHDC2^SBD / BRD3^BD2, sequence (Q9Y2U9 15-361 R112A): as the sequence (Q9Y2U9 15-361) above, with R98A counted along it
R112A KLHDC2^SBD / BRD3^BD2, sequence (Q15059 306-416): as the sequence (Q15059 306-416) above
BRD2^BD2, sequence (P25440 344-455): as the sequence (P25440 344-455) above
R56A KLHDC2^SBD / BRD3^BD2, sequence (Q9Y2U9 15-361 R56A): as the sequence (Q9Y2U9 15-361) above, with R42A counted along it
R56A KLHDC2^SBD / BRD3^BD2, sequence (Q15059 306-416): as the sequence (Q15059 306-416) above
R56A KLHDC2^SBD / G386E BRD4^BD2, sequence (Q9Y2U9 15-361 R56A, other chains not shown): as the sequence (Q9Y2U9 15-361) above, with R42A counted along it

COC(=O)CNC(=O)Cc1csc(-c2ccc3cccc(OCCN4CCN(C(=O)C[C@@H]5N=C(c6ccc(Cl)cc6)c6c(sc(C)c6C)-n6c(C)nnc65)CC4)c3c2)n1 [SJ46420]
IC50 [1]: ~300 nM

Cc1sc2c(c1C)C(c1ccc(Cl)cc1)=N[C@@H](CC(=O)N1CCN(CCOc3cccc4ccc(-c5nc(CC(=O)NCC(=O)O)cs5)cc34)CC1)c1nnc(C)n1-2 [SJ46421]
cellular permeability [2]: poor cellular permeability; also recorded: poor permeability properties
IC50 [3]: 2600 nM
Kd ([4]; ITC Kd, cell: SJ46421, syringe: BRD2^BD2): 2140 ± 306 nM
(-)TDS ([4]; ITC, syringe BRD2BD2, cell compound, Rep1, Rep2): 2.71 and 2.54
Kd ([4]; Kd, Rep1/Rep2, ITC source data Fig4a, syringe BRD2BD2, cell SJ46421): 2290 nM and 1890 nM
ITC -TΔS [4, 16]: 2.63 +/- 0.12 kcal/mol-1
ITC N [4, 16]: 0.9
ITC ΔH [4, 16]: -10.5 +/- 0.45 kcal/mol-1
Kd ([5]; ITC Kd, cell: SJ46421, syringe: BRD3^BD2): 1000 ± 194 nM
(-)TDS ([5]; ITC, syringe BRD3BD2, cell compound, Rep1, Rep2): 5.34 and 5
Kd ([5]; Kd, Rep1/Rep2, ITC source data Fig4a, syringe BRD3BD2, cell SJ46421): 1070 nM and 908 nM
ITC -TΔS [5, 17]: 5.11 +/- 0.24 kcal/mol-1
ITC N [5, 17]: 0.9
ITC ΔH [5, 17]: -13.5 +/- 0.53 kcal/mol-1
(-)TDS [6, 18]: 1.81 and 1.64
DH [6, 18]: -9.89
Kd ([6]; Kd, Rep1/Rep2, ITC source data Fig4a, syringe BRD4BD2, cell SJ46421): 1080 nM and 958 nM
ITC -TΔS [6, 19]: 1.73 +/- 0.14 kcal/mol-1
ITC N [6, 19]: 0.9
ΔG (binary + ternary) ([7]; BRD2^BD2): -18.4 kcal/mol
(-)TDS [7, 20]: 1.18 and 0.97
DH [7, 20]: -10.5
ITC -TΔS (ternary) [7, 21]: 1.08 +/- 0.19 kcal/mol-1
ITC N (ternary) [7, 21]: 0.9
ITC ΔG (ternary) [7, 21]: -9.33 +/- 0.05 kcal/mol-1
ITC ΔH (ternary) [7, 21]: -10.4 +/- 0.10 kcal/mol-1
ΔG (binary + ternary) ([8]; BRD3^BD2): -19.9 kcal/mol
cooperativity α ([8]; BRD3^BD2, KLHDC2^SBD): 16
(-)TDS ([8]; ITC, syringe KLHDC2, cell BRD3BD2-compound (printed BRD2BD3 for SJ46421), Rep1, Rep2): 1.05
ITC N (ternary) [8, 22]: 0.9
ITC ΔG (ternary) [8, 22]: -10.8 +/- 0.01 kcal/mol-1
ITC ΔH (ternary) [8, 22]: -6.65 +/- 0.79 kcal/mol-1
cooperativity α ([9]; BRD4^BD2, KLHDC2^SBD): 2.8
ITC -TΔS (ternary) [9, 23]: -1.51 +/- 0.11 kcal/mol-1
ITC N (ternary) [9, 23]: 0.8
ITC ΔG (ternary) [9, 23]: -9.72 +/- 0.04 kcal/mol-1
ITC ΔH (ternary) [9, 23]: -8.22 +/- 0.09 kcal/mol-1
cooperativity α ([10]; BRD3^BD2, R56A KLHDC2^SBD): 1.7
Kd ([10]; Kd, Rep1/Rep2, ITC source data Fig4f, syringe R56A KLHDC2, cell SJ46421-BRD3BD2): 291 nM and 255 nM
ITC -TΔS (ternary) [10, 24]: -5.02 +/- 0.31 kcal/mol-1
ITC N (ternary) [10, 24]: 1.1
ITC ΔG (ternary) [10, 24]: -9.19 +/- 0.03 kcal/mol-1
ITC ΔH (ternary) [10, 24]: -3.68 +/- 0.03 kcal/mol-1
cooperativity α ([11]; G382E BRD2^BD2, KLHDC2^SBD): 3.2
(-)TDS ([11]; ITC, syringe KLHDC2, cell compound-G382EBRD2BD2, Rep1, Rep2): 0.62 and 0.68
Kd ([11]; Kd, Rep1/Rep2, ITC source data Fig4f, syringe KLHDC2, cell SJ46421-G382EBRD2BD2): 103 nM and 88.1 nM
ITC -TΔS (ternary) [11, 25]: 0.65 +/- 0.07 kcal/mol-1
ITC N (ternary) [11, 25]: 0.9
ITC ΔG (ternary) [11, 25]: -9.80 +/- 0.02 kcal/mol-1
ITC ΔH (ternary) [11, 25]: -10.5 +/- 0.11 kcal/mol-1
Kd [12]: 39.7 nM
(-)TDS, Rep1 [12, 26]: -7.43
DG, Rep1 [12, 26]: -10.3
DH, Rep1 [12, 26]: -2.9
(-)TDS [12, 27]: -7.43
DG [12, 27]: -10.3
DH [12, 27]: -2.9
cooperativity α ([12]; R112A KLHDC2^SBD, estimated from the binding affinity of SJ46421 to WT KLHDC2): 7.6
ITC -TΔS (ternary) [12, 28]: -7.43 kcal/mol-1
ITC N (ternary) [12, 28]: 0.8
ITC ΔG (ternary) [12, 28]: -10.3 kcal/mol-1
ITC ΔH (ternary) [12, 28]: -2.9 kcal/mol-1
cooperativity α ([13]; G386E BRD4^BD2, R56A KLHDC2^SBD): 1.4
Kd ([13]; Kd, Rep1/Rep2, ITC source data Fig4f, syringe R56A KLHDC2, cell SJ46421-G386EBRD4BD2): 333 nM and 325 nM
ITC -TΔS (ternary) [13, 29]: -4.42 +/- 0.19 kcal/mol-1
ITC N (ternary) [13, 29]: 1.1
ITC ΔG (ternary) [13, 29]: -9.05 +/- 0.01 kcal/mol-1
ITC ΔH (ternary) [13, 29]: -4.69 +/- 0.15 kcal/mol-1
SJ46421-dependent ubiquitylation by KLHDC3, KLHDC10, and KLHDC1 [14]: poor
KLHDC2~UB level, Rep1/Rep2 ([15]; Monomer, + BRD3-SJ46421, pre-incubation 0): 0.5851 and 0.3857
KLHDC2~UB level, Rep1/Rep2 ([15]; Tetramer, + BRD3-SJ46421, pre-incubation 0): 67.2962 and 61.2938
KLHDC2~UB level, Rep1/Rep2 ([15]; Tetramer, + BRD3-SJ46421, pre-incubation 2): 32.2274 and 23.9384
KLHDC2~UB level, Rep1/Rep2 ([15]; Tetramer, + BRD3-SJ46421, pre-incubation 5): 1.6168 and 2.133
